Results from US20260365682A1, “MODULATORS OF TNF-ALPHA ACTIVITY” (Forward Therapeutics, Inc., priority 2022, published 2026).

biological target: T1, TNF-α (Homo sapiens, UniProt P01375); experiment: TNF-α Induced HEK Blue Cellular Assay (secreted alkaline phosphatase expression, QUANTI-Blue); type: cell-based; conditions: HEK Blue TNFα reporter cells; TNF-α 100 μg/ml; 24 hrs at 37° C.; inhibition of secreted alkaline phosphatase; read-out: IC50 value
T1 construct: purchased R&D 210-TA-020/CF
Experimental: TNF-α Induced HEK Blue Cellular Assay
Test articles were diluted in DMSO and serially diluted into 384 well assay plate (Corning 3765), at final concentrations ranging from […] to 0.5 nM. HEK Blue™ TNFα reporter cells were added at a final density of 10,000 cell per well in assay media [DMEM (Gibco, cat #21063-029), 10% fetal bovine serum (ExcelBio, cat #FND500), 1% Penicillin-Streptomycin (Solarbio, cat #P1400-100]. TNF-α (R&D 210-TA-020/CF) was then added to the assay plate at a final concentration of […]. This plate was then incubated for 24 hrs at 37° C. and 5% CO2. Secreted alkaline phosphatase expression was then measured using QUANTI-Blue™ (Invivogen), according to manufacturer instructions and read on an Envision microplate reader at 620 nm.
Inhibition data for test compound over a range of concentration was plotted as percentage inhibition of the test compound (100%=maximum inhibition). IC50 values were determined after correcting for background [(sample read-mean of low control)/(mean of high control-mean of low control)] whereby the low control is DMSO without stimulation and high control is DMSO with stimulation. The IC50 is defined as the concentration of test compound which produces 50% inhibition and was quantified using the 4 parameter logistic equation to fit the data.

T1 sequence (P01375 77-233 limits assumed): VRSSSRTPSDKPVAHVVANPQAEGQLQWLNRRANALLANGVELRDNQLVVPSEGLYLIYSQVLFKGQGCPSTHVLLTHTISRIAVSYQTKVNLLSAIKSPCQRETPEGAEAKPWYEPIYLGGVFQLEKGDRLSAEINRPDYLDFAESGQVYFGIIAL

Structure (SMILES) | IC50
[2H]C([2H])([2H])N1C(=O)c2cccc(OC(F)F)c2[C@H]2C[C@@H]1c1nc3ccc(C#CC4CC(O)C4)cc3n12 (stereo partly drawn) [Example 110, (7R,14R)-1-(difluoromethoxy)-11-((3-hydroxycyclobutyl)ethynyl)-6-(methyl-d3)-6,7-dihydro-7,14-methanobenzo[f]benzo[4,5]imidazo[1,2-a][1,4]diazocin-5(14H)-one] | < 100 nM
[2H]C([2H])([2H])N1C(=O)c2cccc(OC(F)F)c2[C@H]2C[C@@H]1c1nc3ccc(C#CCC(O)C(C)O)cc3n12 (single isomer, unassigned) [Example 245, (7R,14R)-1-(difluoromethoxy)-11-((4S or 4R,5S or 5R)-4,5-dihydroxyhex-1-yn-1-yl)-6-(methyl-d3)-6,7-dihydro-7,14-methanobenzo[f]benzo[4,5]imidazo[1,2-a][1,4]diazocin-5(14H)-one] | < 100 nM
[2H]C([2H])([2H])N1C(=O)c2cccc(OC(F)F)c2[C@H]2C[C@@H]1c1nc3ccc(C#CC4CN(CC(F)(F)F)C4)cc3n12 [Example 124, (7R,14R)-1-(difluoromethoxy)-6-(methyl-d3)-11-((1-(2,2,2-trifluoroethyl)azetidin-3-yl)ethynyl)-6,7-dihydro-7,14-methanobenzo[f]benzo[4,5]imidazo[1,2-a][1,4]diazocin-5(14H)-one] | < 100 nM
[2H]C([2H])([2H])N1C(=O)c2cccc(OC(F)F)c2[C@H]2C[C@@H]1c1nc3ccc(C#CC4(C)CN(C(=O)C5(O)CC5)C4)cc3n12 [Example 205, (7R,14R)-1-(difluoromethoxy)-11-((1-(1-hydroxycyclopropane-1-carbonyl)-3-methylazetidin-3-yl)ethynyl)-6-(methyl-d3)-6,7-dihydro-7,14-methanobenzo[f]benzo[4,5]imidazo[1,2-a][1,4]diazocin-5(14H)-one] | < 100 nM
[2H]C([2H])([2H])N1C(=O)c2cccc(OC(F)F)c2[C@H]2C[C@@H]1c1nc3ccc(C#C[C@H](C)COC)cc3n12 [Example 142, (7R,14R)-1-(difluoromethoxy)-11-((S)-4-methoxy-3-methylbut-1-yn-1-yl)-6-(methyl-d3)-6,7-dihydro-7,14-methanobenzo[f]benzo[4,5]imidazo[1,2-a][1,4]diazocin-5(14H)-one] | < 100 nM
[2H]C([2H])([2H])N1C(=O)c2cccc(OC(F)F)c2[C@H]2C[C@@H]1c1nc3ccc(C#CCCN(C)C)cc3n12 [Example 163, (7R,14R)-1-(difluoromethoxy)-11-(4-(dimethylamino)but-1-yn-1-yl)-6-(methyl-d3)-6,7-dihydro-7,14-methanobenzo[f]benzo[4,5]imidazo[1,2-a][1,4]diazocin-5(14H)-one] | 100 to 1000 nM
[2H]C([2H])([2H])N1C(=O)c2cccc(OC(F)F)c2[C@H]2C[C@@H]1c1nc3ccc(C#CC4(C)CN(C)C4)cc3n12 [Example 155, (7R,14R)-1-(difluoromethoxy)-11-((1,3-dimethylazetidin-3-yl)ethynyl)-6-(methyl-d3)-6,7-dihydro-7,14-methanobenzo[f]benzo[4,5]imidazo[1,2-a][1,4]diazocin-5(14H)-one] | < 100 nM
[2H]C([2H])([2H])N1C(=O)c2cccc(OC(F)F)c2[C@H]2C[C@@H]1c1nc3ccc(C#CC4CCCO4)cc3n12 (stereo partly drawn) [Example 53, (7R,14R)-1-(difluoromethoxy)-6-(methyl-d3)-11-((tetrahydrofuran-2-yl)ethynyl)-6,7-dihydro-7,14-methanobenzo[f]benzo[4,5]imidazo[1,2-a][1,4]diazocin-5(14H)-one] | < 100 nM
[2H]C([2H])([2H])N1C(=O)c2cccc(OC(F)F)c2[C@H]2C[C@@H]1c1nc3ccc(C#CC4(C)CN(CC)C4)cc3n12 [Example 206, (7R,14R)-1-(difluoromethoxy)-11-((1-ethyl-3-methylazetidin-3-yl)ethynyl)-6-(methyl-d3)-6,7-dihydro-7,14-methanobenzo[f]benzo[4,5]imidazo[1,2-a][1,4]diazocin-5(14H)-one] | < 100 nM
[2H]C([2H])([2H])N1C(=O)c2cccc(OC(F)F)c2[C@H]2C[C@@H]1c1nc3ccc(C#Cc4cnnn4C)cc3n12 [Example 12, (7R,14R)-1-(difluoromethoxy)-6-(methyl-d3)-11-((1-methyl-1H-1,2,3-triazol-5-yl)ethynyl)-6,7-dihydro-7,14-methanobenzo[f]benzo[4,5]imidazo[1,2-a][1,4]diazocin-5(14H)-one] | 1000 to 10000 nM
[2H]C([2H])([2H])N1C(=O)c2cccc(OC(F)F)c2[C@H]2C[C@@H]1c1nc3ccc(C#Cc4cnc(N)nc4)cc3n12 [Example 249, (7R,14R)-11-((2-aminopyrimidin-5-yl)ethynyl)-1-(difluoromethoxy)-6-(methyl-d3)-6,7-dihydro-7,14-methanobenzo[f]benzo[4,5]imidazo[1,2-a][1,4]diazocin-5(14H)-one] | < 100 nM
[2H]C([2H])([2H])N1C(=O)c2cccc(OC(F)F)c2[C@H]2C[C@@H]1c1nc3ccc(C#Cc4nncs4)cc3n12 [Example 30, (7R,14R)-11-((1,3,4-thiadiazol-2-yl)ethynyl)-1-(difluoromethoxy)-6-(methyl-d3)-6,7-dihydro-7,14-methanobenzo[f]benzo[4,5]imidazo[1,2-a][1,4]diazocin-5(14H)-one] | < 100 nM
[2H]C([2H])([2H])N1C(=O)c2cccc(OC(F)F)c2[C@H]2C[C@@H]1c1nc3ccc(C#CCCN4CCC(F)(F)C4)cc3n12 [Example 226, (7R,14R)-1-(difluoromethoxy)-11-(4-(3,3-difluoropyrrolidin-1-yl)but-1-yn-1-yl)-6-(methyl-d3)-6,7-dihydro-7,14-methanobenzo[f]benzo[4,5]imidazo[1,2-a][1,4]diazocin-5(14H)-one] | < 100 nM
[2H]C([2H])([2H])N1C(=O)c2cccc(OC(F)F)c2[C@H]2C[C@@H]1c1nc3ccc(C#CCOC(C)CO)cc3n12 (stereo partly drawn) [Example 72, (7R,14R)-1-(difluoromethoxy)-11-(3-((1-hydroxypropan-2-yl)oxy)prop-1-yn-1-yl)-6-(methyl-d3)-6,7-dihydro-7,14-methanobenzo[f]benzo[4,5]imidazo[1,2-a][1,4]diazocin-5(14H)-one] | < 100 nM

Now from value to compound:

IC50 | Structure (SMILES)
< 100 nM | [2H]C([2H])([2H])N1C(=O)c2cccc(OC(F)F)c2[C@H]2C[C@@H]1c1nc3ccc(C#CCCO)cc3n12 [Example 111, (7R,14R)-1-(difluoromethoxy)-11-(4-hydroxybut-1-yn-1-yl)-6-(methyl-d3)-6,7-dihydro-7,14-methanobenzo[f]benzo[4,5]imidazo[1,2-a][1,4]diazocin-5(14H)-one]
< 100 nM | [2H]C([2H])([2H])N1C(=O)c2cccc(OC(F)F)c2[C@H]2C[C@@H]1c1nc3ccc(C#Cc4cnc(C(C)(C)O)nc4)cc3n12 [Example 16, (7R,14R)-1-(difluoromethoxy)-11-((2-(2-hydroxypropan-2-yl)pyrimidin-5-yl)ethynyl)-6-(methyl-d3)-6,7-dihydro-7,14-methanobenzo[f]benzo[4,5]imidazo[1,2-a][1,4]diazocin-5(14H)-one]
< 100 nM | [2H]C([2H])([2H])N1C(=O)c2cccc(OC(F)F)c2[C@H]2C[C@@H]1c1nc3ccc(C#CC(F)F)cc3n12 [Example 247, (7R,14R)-1-(difluoromethoxy)-11-(3,3-difluoroprop-1-yn-1-yl)-6-(methyl-d3)-6,7-dihydro-7,14-methanobenzo[f]benzo[4,5]imidazo[1,2-a][1,4]diazocin-5(14H)-one]
< 100 nM | [2H]C([2H])([2H])N1C(=O)c2cccc(OC(F)F)c2[C@H]2C[C@@H]1c1nc3ccc(C#CC4(C)CN(S(C)(=O)=O)C4)cc3n12 [Example 162, (7R,14R)-1-(difluoromethoxy)-6-(methyl-d3)-11-((3-methyl-1-(methylsulfonyl)azetidin-3-yl)ethynyl)-6,7-dihydro-7,14-methanobenzo[f]benzo[4,5]imidazo[1,2-a][1,4]diazocin-5(14H)-one]
< 100 nM | [2H]C([2H])([2H])N1C(=O)c2cccc(OC(F)F)c2[C@H]2C[C@@H]1c1nc3ccc(C#CC4CN(C5COC5)C4(C)C)cc3n12 (stereo partly drawn) [Example 256, (7R,14R)-1-(difluoromethoxy)-11-((2,2-dimethyl-1-(oxetan-3-yl)azetidin-3-yl)ethynyl)-6-(methyl-d3)-6,7-dihydro-7,14-methanobenzo[f]benzo[4,5]imidazo[1,2-a][1,4]diazocin-5(14H)-one]
< 100 nM | [2H]C([2H])([2H])N1C(=O)c2cccc(OC(F)F)c2[C@H]2C[C@@H]1c1nc3ccc(C#CC)c(F)c3n12 [Example 170, (7R,14R)-1-(difluoromethoxy)-12-fluoro-6-(methyl-d3)-11-(prop-1-yn-1-yl)-6,7-dihydro-7,14-methanobenzo[f]benzo[4,5]imidazo[1,2-a][1,4]diazocin-5(14H)-one]
100 to 1000 nM | [2H]C([2H])([2H])N1C(=O)c2cccc(OC(F)F)c2[C@H]2C[C@@H]1c1nc3ccc(C#Cc4ccc(C)nn4)cc3n12 [Example 26, (7R,14R)-1-(difluoromethoxy)-6-(methyl-d3)-11-((6-methylpyridazin-3-yl)ethynyl)-6,7-dihydro-7,14-methanobenzo[f]benzo[4,5]imidazo[1,2-a][1,4]diazocin-5(14H)-one]
